Reference: patent US10752626B2, “Iso-citrate dehydrogenase (IDH) inhibitor” (SHANGHAI METON PHARMACEUTICAL CO., LTD, priority 2016, dated 2020)

Experiments:
IDH1 R132H = IDH1 R132H (Homo sapiens (Human), UniProt O75874, R132H); experiment: Biochemical assay for inhibition of mutant IDH1 R132H; conditions: tested in triplet
Description: (§1) The present disclosure provides a biochemical assay method for detecting the IDH inhibition and selectivity of the compounds by detecting IDH enzyme activity directly.
(§2) Wild-type IDH enzyme could convert NADP^+ to NADPH when it catalyzes the α-KG producing reaction. Mutant IDH enzyme could convert NADPH to NADP^+ when it catalyzes the D-2-HG producing reaction. So the activity of wild-type and mutant IDH1/2 could be measured by monitoring NADPH level change: in the reaction catalyzed by wild-type IDH1/2, the newly generated NADPH is utilized instantly by coupled diaphorase-resazurin reaction to generate resorufin which is fluorescent (at Excitation 544 nm, Emission 590 nm) and thus NADPH is monitored indirectly; while in the reaction catalyzed by mutant IDH1/2, NADPH is directly monitored as it is fluorescent (at Excitation 340 nm, Emission 460 nm). By monitoring the change of NADPH level in the reaction, the enzyme activity could be determined rapidly and efficiently, IC50 of a compound could also be assayed.
(§3) The test compounds were prepared into 50 mM stock solutions in DMSO and stored at −20° C. Each test compound stock was further diluted to obtain a 100× stock solution at a concentration of 200 μM, 100 μM, 50 μM, 25 μM, 12.5 jμM, 6.25 μM and 3.125 μM, respectively, for the final use on the day of test.
(§4) Inhibition of Mutant IDHJ (R132H or R132C):
(§5) Solution A was prepared by combining 1 M Tris-HCl pH7.5 (300 μL), 5 M NaCl (450 μL), 1 M MgCl2 (150 μL), 1 M DTT (15 μL), 20 mg/mL BSA (37.5 μL), 20 mM NADPH (20 μL), and 0.5 mM α-KG (40 μL), followed by adding deionized water to a final volume of 15 mL.
(§6) Reaction buffer was prepared by combining 1 M Tris-HCl pH 7.5 (200 μL), 5 M NaCl (300 μL), 1 M MgCl2 (100 μL), 1 M DTT (10 μL) and 20 mg/mL BSA (25 μL), followed by adding deionized water to a final volume of 10 mL.
(§7) Solution B was prepared by combining the reaction buffer (5 mL) and […] IDH1-R132H (5.21 μL) or 107 μM IDH1-R132C (4.67 μL).
(§8) 148 μL Solution A was added into each sample well of a 96-well plate P1, and then 2 μL of the test compound solution at each concentration and 2 μL of DMSO (negative control/blank) were added into individual sample well respectively. 50 μL of Solution B was added into each of the sample wells having test compounds and one sample well having DMSO only, and 50 μL of reaction buffer was added into another sample well having DMSO only, respectively. P1 was put into BioTek Synergy H4 Microplate reader (BioTek Instruments Inc., Winooski, U.S.), and the program was set as follows: 37° C., shake plate 5 seconds, run kinetic mode, total detection time 20 min, detection intervals 40 seconds, detection mode fluorescence (at Excitation 340 nm, Emission 460 nm). The data were exported, the relative enzyme activity and the half-maximal inhibitory concentration (IC50) for the test compound were calculated. Relative enzyme activity was calculated as the absolute value of the slope of the Emission 460 reads of each well plotted against time (which represents the conversion rate of ca-KG to 2-HG through IDH1 modulated utilization of NADPH). The Dose-response curve was drawn and the IC50 was calculated via fitting. The IDH inhibition and selectivity of each test compound can be evaluated according to the effect of the compounds on the IDH enzyme activity.
(§9) The IDH inhibition activity of the compounds were assessed according to Test 5 of the Biological evaluation section. The test for mutant IDH1 R132H/R132C inhibition of each compound was carried out in triplet. For IDH1 R132H, the enzyme activity of exemplary Compounds 16, 21, 22, 23, 24 and 31 is plotted as a function of logarithm of the concentration of the compound in FIGS. 8A-8C, 9A-9C, 10A-10C, 11A-11C, 12A-12C and 13A-13C, respectively. […]

IDH1 R132C [1] = molecular target: T1, IDH1 R132C (Homo sapiens (Human), UniProt O75874, R132C); experiment: Improved cell-based assay: D-2-HG in HT1080 cells over-expressing D-2-HG dehydrogenase; conditions: 12 h
Description: The present disclosure also provides a cell based method for assaying IDH inhibition and selectivity of the compounds in human fibrosacoma cell line HT1080 and cholangiocarcinoma cell line HCCC 9810, which harbor endogenous heterozygous IDH1 R132C and R132H mutation respectively and accumulate D-2-HG Tumor derived IDH mutant lost its normal activity of producing α-KG and gained a new activity of producing D-2-HG D-2-HG is a metabolite specifically elevated in IDH mutated tumor samples.
By treating HT1080 and HCCC 9810 cells with an effective IDH inhibitor, the synthesis of D-2-HG is blocked, and D-2-HG concentration is decreased by the oxidation reaction catalyzed by D-2-HG dehydrogenase.
To perform a cell based IDH inhibitor assay, HT1080 and HCCC 9810 cells (or other cell lines harboring different IDH mutations) are cultured in DMEM supplemented with 10% FBS. The cells are treated with compounds of present disclosure at various different concentration. At various time points (between 4-24 hours) after the treatment, cell culture supernatants were removed and cells were washed with PBS for one or two times. Cell metabolites are extracted by adding 80% methanol (pre-chilled under −80° C.) in the cells, extract at 4° C. temperature for 60 min, centrifuged to remove any insoluble component. Metabolites (clear supernatant from the previous step) are lyophilized and reconstituted in pyridine containing 20 mg/ml O-methoxyamineHCl and are incubated at 70° C. for 40 minutes. After cooling down to room temperature, MTBSTFA (N-tert-Butyldimethylsilyl-N-methyltrifluoroacetamide, Sigma Aldrich) is added at a volume ratio of 4:7 (e.g., 20 μL MTBSTFA to 35 μL 20 mg/ml O-methoxyamineHCl solution) and derivation is performed at 70° C. for 30 minutes. The derived metabolites including D-2-HG are analyzed by Agilent 7890A-5750 GC/MS system. […] of the derived metabolite is injected into Agilent 7890A-5750 for D-2-HG concentration analysis. GC oven temperature is programmed from 140° C. to 260° C. at 10° C./min, from 260° C. to 310° C. at 8° C./min and hold at 310° C. for 5 min. The flow rate of carrier gas is 1 ml/min. The mass spectrometer is operated in the electron impact (EI) mode at 70 eV D-2-HG is normalized to endogenous glutamate.
The activity of IDHs in the presence of each compounds at different concentrations can be represented by relative D-2-HG concentration to negative control samples, and the IC50 value, the inhibition and selectivity for each compound can be evaluated.
The present disclosure also provides an improved cell-based assay for IDH inhibition and selectivity of the compounds, which involves stably over-expressing D-2-HG dehydrogenase in HT1080 and HCCC 9810 cells.
According to previous report, over expression of D-2-HG dehydrogenase decreases the half-life of D-2-HG in HT1080 cells (FIGS. 2A and 2B) [“D-2-hydroxyglutarate is essential for maintaining oncogenic property of mutant IDH-containing cancer cells but dispensable for cell growth”, Ma, S., et al., Oncotarget, (2015)], making the cells more sensitive to D-2-HG synthesis blockage by mutant IDH1 inhibitors. It will greatly increase the sensitivity and accurateness of this cell based assay. In the improved cell-based assay, all other steps are performed as disclosed in Test 6.
The D-2-HG inhibition activity of compounds was also assessed in the improved cell-based assay according to the method disclosed in Test 7 of the Biological evaluation section. HT1080 cells over-expressing D-2-HG dehydrogenase were cultured in 35 mm plate and treated with each of Compounds 1-37 at a concentration of 0.5 μM, 1 μM, 2.5 μM and 5 μM for 12 h, respectively, and the D-2-HG concentration was analysed. The inhibition ratio of D-2-HG in HT1080 cell by the exemplary Compounds 16, 21-24 and 31 at different concentrations were shown in Table 10.
Target sequence in this assay (O75874 2-414 R132C): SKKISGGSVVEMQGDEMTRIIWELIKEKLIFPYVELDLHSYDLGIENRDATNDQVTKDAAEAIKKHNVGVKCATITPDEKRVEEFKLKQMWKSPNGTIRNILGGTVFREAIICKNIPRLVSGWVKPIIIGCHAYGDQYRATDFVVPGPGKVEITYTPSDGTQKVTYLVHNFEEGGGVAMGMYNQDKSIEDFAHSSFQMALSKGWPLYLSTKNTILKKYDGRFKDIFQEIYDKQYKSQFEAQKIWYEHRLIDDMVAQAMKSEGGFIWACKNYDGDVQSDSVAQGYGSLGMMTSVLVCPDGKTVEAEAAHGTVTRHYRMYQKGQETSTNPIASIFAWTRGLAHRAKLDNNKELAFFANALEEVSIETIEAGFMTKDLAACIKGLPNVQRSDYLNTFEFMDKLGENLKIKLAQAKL

IDH1 R132C [2] = molecular target: T1, IDH1 R132C; experiment: Biochemical assay for inhibition of mutant IDH1 R132C; conditions: tested in triplet
Description: as §1, §2, §3, §4, §5, §6, §7, §8, §9
Target sequence in this assay (O75874 whole entry R132C): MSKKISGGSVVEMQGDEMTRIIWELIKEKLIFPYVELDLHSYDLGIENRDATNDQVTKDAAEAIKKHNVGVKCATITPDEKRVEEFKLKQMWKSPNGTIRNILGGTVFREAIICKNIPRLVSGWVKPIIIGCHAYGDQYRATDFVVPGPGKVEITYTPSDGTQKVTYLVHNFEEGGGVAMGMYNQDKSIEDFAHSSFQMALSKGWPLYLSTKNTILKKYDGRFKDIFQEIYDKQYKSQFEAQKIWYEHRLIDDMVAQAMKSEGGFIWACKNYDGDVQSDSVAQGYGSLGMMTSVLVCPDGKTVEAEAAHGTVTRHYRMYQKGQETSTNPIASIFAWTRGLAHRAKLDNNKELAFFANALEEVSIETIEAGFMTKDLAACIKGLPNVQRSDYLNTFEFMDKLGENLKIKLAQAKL

IDH1 R132H, sequence (O75874 whole entry R132H): as the sequence (O75874 whole entry R132C) above, with C132H counted along it

**Q.** With `CCN1Cc2c(ccnc2N[C@@H](C)c2ccc(Oc3cccc(F)c3)cc2)C1=O` [Compound 21, (S)-2-ethyl-4-((1-(4-(3-fluorophenoxy)phenyl)ethyl)amino)-2,3-dihydro-1H-pyrrolo[3,4-c]pyridin-1-one] as the compound, how does the IC50 (IDH1 R132H) read?
**A.** Its IC50 is under 1000 nM.

**Q.** And the “Inhibition ratio of D-2-HG in HT1080 cell” value (“Inhibition ratio of D-2-HG” below) (IDH1 R132C [1]; 0.5 μM)?
**A.** Its value is 20.2%.

**Q.** And the “Inhibition ratio of D-2-HG” value (IDH1 R132C [1]; 1 μM)?
**A.** The value was 18.7%.

**Q.** And the “Inhibition ratio of D-2-HG” value (IDH1 R132C [1]; 2.5 μM)?
**A.** Its value is 43.1%.

**Q.** What about the “Inhibition ratio of D-2-HG” value (IDH1 R132C [1]; 5 μM) of the same compound?
**A.** The value was 76.1%.

**Q.** What about the IC50 (IDH1 R132C [2]) of the same compound?
**A.** The IC50 was under 1500 nM.

**Q.** How did the IC50 (IDH1 R132H) turn out when `CCN1Cc2c(ccnc2N[C@@H](C)c2ccc(Oc3ccccc3F)cc2)C1=O` [Compound 22, (S)-2-ethyl-4-((1-(4-(2-fluorophenoxy)phenyl)ethyl)amino)-2,3-dihydro-1H-pyrrolo[3,4-c]pyridin-1-one] was run?
**A.** The IC50 was under 1000 nM.

**Q.** What about the “Inhibition ratio of D-2-HG” value (IDH1 R132C [1]; 0.5 μM) of the same compound?
**A.** The value was 36.3%.

**Q.** What about the “Inhibition ratio of D-2-HG” value (IDH1 R132C [1]; 1 μM) of the same compound?
**A.** Its value is 53.3%.

**Q.** What about the “Inhibition ratio of D-2-HG” value (IDH1 R132C [1]; 2.5 μM) of the same compound?
**A.** Its value is 72.3%.

**Q.** And the “Inhibition ratio of D-2-HG” value (IDH1 R132C [1]; 5 μM)?
**A.** Its value is 87.8%.

**Q.** What about the IC50 (IDH1 R132C [2]) of the same compound?
**A.** The IC50 was under 1500 nM.

**Q.** Which results are given for `CCN1Cc2c(ccnc2N[C@@H](C)c2ccc(Oc3ccc(C)cc3)c(F)c2)C1=O` [Compound 24, (S)-2-ethyl-4-((1-(3-fluoro-4-(p-tolyloxy)phenyl)ethyl)amino)-2,3-dihydro-1H-pyrrolo[3,4-c]pyridin-1-one]?
**A.** IC50 (IDH1 R132H): < 1000 nM; Inhibition ratio of D-2-HG in HT1080 cell (IDH1 R132C [1]; 0.5 μM): 45.5%; Inhibition ratio of D-2-HG in HT1080 cell (IDH1 R132C [1]; 1 μM): 54.6%; Inhibition ratio of D-2-HG in HT1080 cell (IDH1 R132C [1]; 2.5 μM): 72.1%; Inhibition ratio of D-2-HG in HT1080 cell (IDH1 R132C [1]; 5 μM): 92.1%; IC50 (IDH1 R132C [2]): < 1500 nM

**Q.** What does the source list for `Cc1ccc(Oc2ccc([C@H](C)Nc3nccc4c3CN(C(C)C)C4=O)cc2)cc1` [Compound 31, (S)-2-isopropyl-4-((1-(4-(p-tolyloxy)phenyl)ethyl)amino)-2,3-dihydro-1H-pyrrolo[3,4-c]pyridin-1-one]?
**A.** IC50 (IDH1 R132H): < 1000 nM; Inhibition ratio of D-2-HG in HT1080 cell (IDH1 R132C [1]; 0.5 μM): 36.9%; Inhibition ratio of D-2-HG in HT1080 cell (IDH1 R132C [1]; 1 μM): 57.8%; Inhibition ratio of D-2-HG in HT1080 cell (IDH1 R132C [1]; 2.5 μM): 68.7%; Inhibition ratio of D-2-HG in HT1080 cell (IDH1 R132C [1]; 5 μM): 89.1%; IC50 (IDH1 R132C [2]): < 1500 nM
